Experimental findings from patent publication US20220132847A1, “CINNOLINIUM COMPOUNDS FOR USE IN A METHOD OF CONTROLLING UNWANTED PLANT GROWTH” (SYNGENTA CROP PROTECTION AG, priority 2019, published 2022) are described below.

Holding throughout (assay): Post-emergence efficacy, glasshouse
Common to all, as to format: in vivo

Experiment [1] has as its system Amaranthus palmeri (AMAPA). Particulars: Amaranthus palmeri, post-emergence, 312 h, evaluated after 13 days, 100=total damage to plant, 0=no damage to plant, read-out: Control of weed species after post-emergence application, AMAPA; for pest or weed control at 1000 g/ha: Application Rate 1000 g/Ha. The method, boiled down: (§1)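 Plants grown 14 days in glasshouse (24/16° C, 14 h light, 65% humidity), then sprayed post-emergence with active ingredient in IF50 solvent/emulsifier mix, diluted in 0.25% or 1% Empicol ESC70 + 1% ammonium sulphate. Damage scored 13 days later, 0–100 (100 = total damage).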

Experiment [2] has as its system Chenopodium album (CHEAL). Particulars: Chenopodium album, post-emergence, 312 h, evaluated after 13 days, 100=total damage to plant, 0=no damage to plant, read-out: Control of weed species after post-emergence application, CHEAL; for pest or weed control at 1000 g/ha: Application Rate 1000 g/Ha. An outline of the steps: as §1
Experiment [3] deals with Digitaria sanguinalis (DIGSA). Conditions: Digitaria sanguinalis, post-emergence, 312 h, evaluated after 13 days, 100=total damage to plant, 0=no damage to plant, read-out: Control of weed species after post-emergence application, DIGSA; for pest or weed control at 1000 g/ha: Application Rate 1000 g/Ha. The method, boiled down:
as §1

For experiment [4], the system named is Echinochloa crus-galli (ECHCG). Conditions: Echinochloa crus-galli, post-emergence, 312 h, evaluated after 13 days, 100=total damage to plant, 0=no damage to plant, read-out: Control of weed species after post-emergence application, ECHCG; for pest or weed control at 1000 g/ha: Application Rate 1000 g/Ha. The method, boiled down:
as §1

Another experiment relates to Eleusine indica (ELEIN). Conditions: Eleusine indica, post-emergence, 312 h, evaluated after 13 days, 100=total damage to plant, 0=no damage to plant, read-out: Control of weed species after post-emergence application, ELEIN; for pest or weed control at 1000 g/ha: Application Rate 1000 g/Ha. The method, boiled down: as §1
Experiment [5] relates to Euphorbia heterophylla (EPHHL). Conditions: Euphorbia heterophylla, post-emergence, 312 h, evaluated after 13 days, 100=total damage to plant, 0=no damage to plant, read-out: Control of weed species after post-emergence application, EPHHL; for pest or weed control at 1000 g/ha: Application Rate 1000 g/Ha. An outline of the steps: as §1
Experiment [6] deals with Ipomoea hederacea (IPOHE). Particulars: Ipomoea hederacea, post-emergence, 312 h, evaluated after 13 days, 100=total damage to plant, 0=no damage to plant, read-out: Control of weed species after post-emergence application, IPOHE; for pest or weed control at 1000 g/ha: Application Rate 1000 g/Ha. An outline of the steps: as §1
Another experiment concerns Lolium perenne (LOLPE). Conditions: Lolium perenne, post-emergence, 312 h, evaluated after 13 days, 100=total damage to plant, 0=no damage to plant, read-out: Control of weed species after post-emergence application, LOLPE; for pest or weed control at 1000 g/ha: Application Rate 1000 g/Ha. An outline of the steps: as §1
In a further experiment the test system is Setaria faberi (SETFA). Particulars: Setaria faberi, post-emergence, 312 h, evaluated after 13 days, 100=total damage to plant, 0=no damage to plant, read-out: Control of weed species after post-emergence application, SETFA; for pest or weed control at 1000 g/ha: Application Rate 1000 g/Ha. An outline of the steps: as §1

Structures are written as SMILES. Structures can show the parent of a compound that is named as a salt.

Regarding `CCOP(=O)([O-])c1c[n+](C(C)C)nc2ccccc12` [Compound A77], the pest or weed control at 500 g/ha came out at 100% in [1] (Application Rate 500 g/Ha); 90% in [2] (Application Rate 500 g/Ha); 90% in [3] (Application Rate 500 g/Ha); 50% in experiment [4] (Application Rate 500 g/Ha); 100% in the experiment on Eleusine indica (ELEIN) (Application Rate 500 g/Ha); 80% in experiment [5] (Application Rate 500 g/Ha). The pest or weed control at 500 g/ha was found to be 90% in experiment [6] (Application Rate 500 g/Ha), 30% in the experiment with Lolium perenne (LOLPE) (Application Rate 500 g/Ha) and 90% with Setaria faberi (SETFA) (Application Rate 500 g/Ha).
`CCS(=O)(=O)[N-]C(=O)c1c[n+](C)nc2ccccc12` [Compound A37]: the pest or weed control at 1000 g/ha in [1] was determined as 100%; in experiment [2] it was 80%; in experiment [3], 80%; in experiment [4], 40%; in the experiment on Eleusine indica (ELEIN), 70%; in [5], 90%. Besides, the results for the pest or weed control at 1000 g/ha (in experiment [6]; in the experiment with Lolium perenne (LOLPE); in the experiment on Setaria faberi (SETFA)) were 80%, 40% and 60%, respectively.
Turning to `CN(C)S(=O)(=O)[N-]C(=O)c1c[n+](C)nc2ccccc12` [Compound A11], the pest or weed control at 1000 g/ha in experiment [1] came to 40%; in [2] it was 60%; in experiment [3], 40%; in [4], 50%; in the experiment with Eleusine indica (ELEIN), 30%; in [5] it was 70%. In addition, the values for the pest or weed control at 1000 g/ha (in [6]; in the experiment on Lolium perenne (LOLPE); in the experiment on Setaria faberi (SETFA)) were 60%, 20% and 50%, respectively.
As to `COC(=O)C[n+]1cc(C(=O)[N-]S(C)(=O)=O)c2ccccc2n1` [Compound A15, [2-(2-methoxy-2-oxo-ethyl)cinnolin-2-ium-4-carbonyl]-methylsulfonyl-azanide], the pest or weed control at 1000 g/ha in experiment [1] came out at 50%; in [2], 30%; in experiment [3], 0%; in [4] it was 20%; in the experiment on Eleusine indica (ELEIN), 0%; in experiment [5] it was 30%. Further, the pest or weed control at 1000 g/ha (in experiment [6]; with Lolium perenne (LOLPE); in the experiment on Setaria faberi (SETFA)) was 10% throughout.
For `C[n+]1nc2ccccc2c(C(=O)[O-])c1-c1ccccc1` [Compound A60], the pest or weed control at 1000 g/ha in experiment [1] worked out at 100%; in [2], 100%; in experiment [3] it was 90%; in [4], 50%; with Eleusine indica (ELEIN), 100%; in experiment [5], 100%. Moreover, the pest or weed control at 1000 g/ha was 100% in experiment [6], 40% in the experiment on Lolium perenne (LOLPE) and 70% in the experiment with Setaria faberi (SETFA).
As to `CCP(=O)([O-])c1c[n+](C)nc2ccccc12` [Compound A48, ethyl-(2-methylcinnolin-2-ium-4-yl)phosphinate], the pest or weed control at 1000 g/ha in [1] turned out to be 100%; in [2], 100%; in experiment [3], 70%; in experiment [4], 80%; in the experiment on Eleusine indica (ELEIN), 100%; in [5], 100%. Besides, the pest or weed control at 1000 g/ha is 70% in [6], 40% in the experiment on Lolium perenne (LOLPE) and 100% in the experiment with Setaria faberi (SETFA).
With `C[n+]1cc(C(=O)O)c2ccccc2n1` [Compound A3, 2-methylcinnolin-2-ium-4-carboxylic acid methyl sulfate], the pest or weed control at 1000 g/ha came out at 20% in experiment [1]; 20% in [2]; 50% in experiment [3]; 30% in experiment [4]; 60% with Eleusine indica (ELEIN); 30% in experiment [5]. Also, the pest or weed control at 1000 g/ha in experiment [6] was 20%; in the experiment with Lolium perenne (LOLPE) it was 20%; in the experiment with Setaria faberi (SETFA), 10%.
Turning to `C[n+]1cc(C(=O)[N-]S(=O)(=O)C(C)(C)C)c2ccccc2n1` [Compound A36], the pest or weed control at 1000 g/ha came out at 40% in experiment [1]; 30% in experiment [2]; 10% in experiment [3]; 10% in [4]; 30% with Eleusine indica (ELEIN); 20% in experiment [5]. Further, the values for the pest or weed control at 1000 g/ha (in experiment [6]; in the experiment on Lolium perenne (LOLPE); in the experiment with Setaria faberi (SETFA)) were 30%, 0% and 30%, respectively.
With `C[C@@H](NC(=O)c1c[n+](C)nc2ccccc12)C(=O)O` [Compound A9, (2R)-2-[(2-methylcinnolin-2-ium-4-carbonyl)amino]propanoic acid 2,2,2-trifluoroacetate], the pest or weed control at 1000 g/ha in [1] amounted to 50%; in experiment [2], 50%; in [3], 40%; in experiment [4], 20%; with Eleusine indica (ELEIN) it was 40%; in experiment [5], 50%. The figures for the pest or weed control at 1000 g/ha (in experiment [6]; with Lolium perenne (LOLPE); in the experiment on Setaria faberi (SETFA)) were 50%, 10% and 30%, respectively.
Consider `CCCS(=O)(=O)[N-]C(=O)c1c[n+](C)nc2ccccc12` [Compound A33], for which the pest or weed control at 1000 g/ha was 40% in [1]; 40% in [2]; 80% in experiment [3]; 20% in experiment [4]; 70% in the experiment with Eleusine indica (ELEIN); 80% in experiment [5]. For the same compound, the pest or weed control at 1000 g/ha in [6] was found to be 60%; with Lolium perenne (LOLPE), 40%; with Setaria faberi (SETFA), 40%.
`Cn1ncnc1NC(=O)c1c[n+](C)nc2ccccc12` [Compound A25, 2-methyl-N-(2-methyl-1,2,4-triazol-3-yl)cinnolin-2-ium-4-carboxamide iodide]: the pest or weed control at 1000 g/ha in experiment [1] worked out at 50%; in [2] it was 50%; in experiment [3] it was 10%; in experiment [4], 10%; with Eleusine indica (ELEIN), 10%; in [5], 20%. Also, the pest or weed control at 1000 g/ha came out at 30% in experiment [6], 10% in the experiment on Lolium perenne (LOLPE) and 20% in the experiment with Setaria faberi (SETFA).
